Assay results published in ChEMBL document CHEMBL3885861, “Open TG-GATES”.

Species on record: Rattus norvegicus
Assay: Open TG-GATES - Regimen: Single
Assay type: toxicity, organism-based, Sprague-Dawley
Set-up: regimen Single, gender Male, age 6 weeks
Settings: in vivo, po, 50 mg/kg, route gavage, dose level Low; for APTT / Bas / Eos / Fbg / Hb / Ht / Lym / MCH / MCHC / MCV / Mono / Neu / PT / Plat / RBC / Ret / WBC: tissue Blood; for KIDNEY_L / KIDNEY_R / KIDNEY_TOTAL: tissue Kidney; for LIVER: tissue Liver; for A/G / ALP / ALT / AST / BUN / CRE / Ca / Cl / DBIL / GLC / IP / K / LDH / Na / PL / RALB / TBIL / TC / TG / TP / gamma-GTP: tissue Plasma

Compound: CN1C(=O)OC(C)(C)C1=O [TRIMETHADIONE]
- TERMINAL_BW (3 h): 208.1 g
- APTT (3 h): 16.8 s
- Bas (3 h): 0%
- Eos (3 h): 0.8%
- Fbg (3 h): 278 mg/dL
- Hb (3 h): 13.4 g/dL
- Ht (3 h): 40.2%
- Lym (3 h): 78.4%
- MCH (3 h): 21.3 pg
- MCHC (3 h): 33.3%
- MCV (3 h): 64 fL
- Mono (3 h): 3%
- Neu (3 h): 17.4%
- PT (3 h): 13.8 s
- Plat (3 h): 129 x10_4/uL
- RBC (3 h): 628.4 x10_4/ul
- Ret (3 h): 8.1%
- WBC (3 h): 86.2 x10_2/uL
- KIDNEY_L (3 h): 0.9 g
- KIDNEY_R (3 h): 0.9 g
- KIDNEY_TOTAL (3 h): 1.8 g
- LIVER (3 h): 9.6 g
- A/G (3 h): 0.9
- ALP (3 h): 1564.2 IU/L
- ALT (3 h): 42.6 IU/L
- AST (3 h): 80.4 IU/L
- BUN (3 h): 10.4 mg/dL
- CRE (3 h): 0.2 mg/dL
- Ca (3 h): 10.6 mg/dL
- Cl (3 h): 108.2 meq/L
- DBIL (3 h): 0.006 mg/dL
- GLC (3 h): 180.8 mg/dL
- IP (3 h): 8.7 mg/dL
- K (3 h): 4.1 meq/L
- LDH (3 h): 133.8 IU/L
- Na (3 h): 141.4 meq/L
- PL (3 h): 146.8 mg/dL
- RALB (3 h): 2.5 g/dL
- TBIL (3 h): 0.064 mg/dL
- TC (3 h): 76.4 mg/dL
- TG (3 h): 77.8 mg/dL
- TP (3 h): 5.4 g/dL
- gamma-GTP (3 h): 1.6 IU/L
- TERMINAL_BW (6 h): 207.4 g
- APTT (6 h): 17 s
- Bas (6 h): 0%
- Eos (6 h): 1%
- Fbg (6 h): 268.2 mg/dL
- Hb (6 h): 13.5 g/dL
- Ht (6 h): 40.5%
- Lym (6 h): 78.6%
- MCH (6 h): 21.6 pg
- MCHC (6 h): 33.2%
- MCV (6 h): 64.9 fL
- Mono (6 h): 2.4%
- Neu (6 h): 17.2%
- PT (6 h): 13.7 s
- Plat (6 h): 120 x10_4/uL
- RBC (6 h): 625.4 x10_4/ul
- Ret (6 h): 8%
- WBC (6 h): 71.3 x10_2/uL
- KIDNEY_L (6 h): 0.9 g
- KIDNEY_R (6 h): 0.9 g
- KIDNEY_TOTAL (6 h): 1.9 g
- LIVER (6 h): 8.6 g
- A/G (6 h): 0.9
- ALP (6 h): 1854.2 IU/L
- ALT (6 h): 39.8 IU/L
- AST (6 h): 79.8 IU/L
- BUN (6 h): 10.8 mg/dL
- CRE (6 h): 0.2 mg/dL
- Ca (6 h): 10.7 mg/dL
- Cl (6 h): 108 meq/L
- DBIL (6 h): 0.004 mg/dL
- GLC (6 h): 185.6 mg/dL
- IP (6 h): 8.9 mg/dL
- K (6 h): 4.2 meq/L
- LDH (6 h): 130.4 IU/L
- Na (6 h): 140.8 meq/L
- PL (6 h): 139.4 mg/dL
- RALB (6 h): 2.5 g/dL
- TBIL (6 h): 0.06 mg/dL
- TC (6 h): 77.2 mg/dL
- TG (6 h): 54.4 mg/dL
- TP (6 h): 5.3 g/dL
- gamma-GTP (6 h): 1.2 IU/L
- TERMINAL_BW (9 h): 201.4 g
- APTT (9 h): 18.8 s
- Bas (9 h): 0%
- Eos (9 h): 1%
- Fbg (9 h): 285.2 mg/dL
- Hb (9 h): 13.2 g/dL
- Ht (9 h): 39.8%
- Lym (9 h): 78.8%
- MCH (9 h): 21.5 pg
- MCHC (9 h): 33.2%
- MCV (9 h): 64.6 fL
- Mono (9 h): 2%
- Neu (9 h): 17.6%
- PT (9 h): 13.6 s
- Plat (9 h): 142.2 x10_4/uL
- RBC (9 h): 615.4 x10_4/ul
- Ret (9 h): 8.1%
- WBC (9 h): 80.8 x10_2/uL
- KIDNEY_L (9 h): 0.9 g
- KIDNEY_R (9 h): 0.9 g
- KIDNEY_TOTAL (9 h): 1.8 g
- LIVER (9 h): 7.5 g
- A/G (9 h): 0.9
- ALP (9 h): 1414 IU/L
- ALT (9 h): 34.8 IU/L
- AST (9 h): 74.6 IU/L
- BUN (9 h): 8.4 mg/dL
- CRE (9 h): 0.2 mg/dL
- Ca (9 h): 10.4 mg/dL
- Cl (9 h): 108.6 meq/L
- DBIL (9 h): 0.002 mg/dL
- GLC (9 h): 158.8 mg/dL
- IP (9 h): 9.7 mg/dL
- K (9 h): 3.9 meq/L
- LDH (9 h): 99.8 IU/L
- Na (9 h): 141.2 meq/L
- PL (9 h): 143.2 mg/dL
- RALB (9 h): 2.5 g/dL
- TBIL (9 h): 0.064 mg/dL
- TC (9 h): 84.6 mg/dL
- TG (9 h): 33.2 mg/dL
- TP (9 h): 5.3 g/dL
- gamma-GTP (9 h): 1.2 IU/L
- TERMINAL_BW (24 h): 222.7 g
- APTT (24 h): 19.1 s
- Bas (24 h): 0%
- Eos (24 h): 1%
- Fbg (24 h): 267 mg/dL
- Hb (24 h): 13.4 g/dL
- Ht (24 h): 40.3%
- Lym (24 h): 76.4%
- MCH (24 h): 21.6 pg
- MCHC (24 h): 33.2%
- MCV (24 h): 64.9 fL
- Mono (24 h): 2.8%
- Neu (24 h): 19.4%
- PT (24 h): 13.4 s
- Plat (24 h): 118.6 x10_4/uL
- RBC (24 h): 620 x10_4/ul
- Ret (24 h): 7.3%
- WBC (24 h): 100.7 x10_2/uL
- KIDNEY_L (24 h): 1 g
- KIDNEY_R (24 h): 1 g
- KIDNEY_TOTAL (24 h): 1.9 g
- LIVER (24 h): 10 g
- A/G (24 h): 0.8
- ALP (24 h): 2138 IU/L
- ALT (24 h): 47.4 IU/L
- AST (24 h): 77.8 IU/L
- BUN (24 h): 14.6 mg/dL
- CRE (24 h): 0.2 mg/dL
- Ca (24 h): 10.8 mg/dL
- Cl (24 h): 105 meq/L
- DBIL (24 h): 0.008 mg/dL
- GLC (24 h): 173.2 mg/dL
- IP (24 h): 7.4 mg/dL
- K (24 h): 4 meq/L
- LDH (24 h): 112.2 IU/L
- Na (24 h): 142.6 meq/L
- PL (24 h): 151.4 mg/dL
- RALB (24 h): 2.6 g/dL
- TBIL (24 h): 0.05 mg/dL
- TC (24 h): 77.6 mg/dL
- TG (24 h): 99.4 mg/dL
- TP (24 h): 5.7 g/dL
- gamma-GTP (24 h): 1.2 IU/L
